# Read-outs that look alike come from different tables or passages of the source. Starred links: 1 amine or outer side, 2 acyl side, 3 side chain; linkers in the order of their positions; H or OH if unused. Non-standard residues stand in square brackets, D forms with d. Residues, ends and D or L forms follow the SMILES beside them. Groups on a side chain read outwards from the residue. *: point of attachment. C20 diacid = O=C(O)CCCCCCCCCCCCCCCCCCC(=O)*; γGlu = O=C(O)[C@H](CCC(=O)[*:2])N[*:1]; NMeI = CC[C@H](C)[C@H](NC)C(=O)O; Nle = CCCC[C@H](N)C(=O)O; AEEA = NCCOCCOCC(=O)O; Aib = CC(C)(N)C(=O)O
# What was measured:
# [1] = Size exclusion chromatography for high molecular weight products (HMWP); format: physicochemical; settings: for HMWP formation (SEC analysis) T14-T0 (%): 14 days; for HMWP formation (SEC analysis) T28-T0 (%): 28 days
# Procedure: Dissolved samples were incubated for at least 2 h at room temperature on a rocking table. The main peak purity at time zero (T0) was determined using reversed phase chromatography. The samples were incubated at 40°C for 14 days (T14) and 28 days (T28). The samples were analyzed with reversed phase chromatography and size exclusion chromatography.
# Size exclusion chromatography (SEC) was used as an analysis for the formation of high molecular weight products (HMWP, covalent dimers, trimers etc.,). SEC analyses was performed on Thermo Dionex Ultimate UHPLC system with UV detection at 215 nm) equipped with a SEC column (Waters BEH 125Å, 1.7 µm, 300mm x 4.6). Analysis was performed by isocratic elution using 60% buffer B (0.1% TFA in 5:95 H2O: acetonitrile) in buffer A (0.1% TFA in 95:5 H2O: acetonitrile) at a column temperature of 60° C over 20 min. Flowrate was 0.3 mL/min.
# Chromatograms were integrated as HMWP (all peaks eluting before the main peak), main peak (assuming this is monomeric peptide) and if relevant LMWP (low molecular weight products, all peaks eluting after main peak). The amount of HMWP was reported as area relative to total area in percent.
# [2] = Dynamic Light Scattering (DLS) of peptide oligomerisation/particle formation; format: physicochemical; settings: for PD (%) / Rh (nm): average of three replica
# Procedure: Samples were prepared by dissolving 800 nmol of each peptide in 400 µl 50 mM phosphate pH 8.0 to a concentration of 2000 µM (ca 10 mg/ml). After fully dissolution for 2 hours on a rocking table, samples were adjusted to pH 7.5 and filtrated through a 0.2 µm Whatman Anotop filter. Comparators were commercially available liraglutide drug product (Victoza®, Novo Nordisk) pH 8.2, and an aliquot of this drug product adjusted to pH 6.7. These samples were filtrated through a 0.02 µm Whatman Anotop filter.
# Samples were pipetted as triplicate of 30 µl to an Aurora 384 well microtiter plate, which was centrifuged for 2 minutes at 2200 rpm and then sealed with a Thermo sealing tape 235307. DLS measurements were done in a Wyatt DynaPro platereader III with the following parameters:
# The microtiter plate was incubated in a Grant-bio Thermo Shaker PHMP-4 at 40°C with 700 rpm continuous shaking before subsequent DLS measurements. Data analysis was done using Wyatt Dynamics software ver. 7.10.1.21.
# Samples were prepared and measured as described in procedure. The hydrodynamic radii (Rh) and associated polydispersity (PD) resulting from cumulant analysis (assuming one species) are shown in the Table 8 as averages of three replica. T0 indicates the measurement at time zero after sample preparation; T5 indicates the measurements of five days of incubation as described above.
# PK in minipigs = settings: male, Göttingen, minipig, in vivo; for half-life: read-out: T½ (converted); for bioavailability / Cmax / Tmax: sc; for Cmax / Tmax: 6.0 nmol/kg s.c
# Procedure: Pharmacokinetics studies were determined in male Göttingen minipigs from Ellegaard Göttingen Minipigs A/S. Animals were acclimatised for at least 7 days before placed on study. The minipigs had prior to study been surgically implanted with central venous catheters inserted which were used for blood sampling. Animals were housed under a 12/12 h dark-light cycle with ad libitum access to domestic water and animals were fed a commercially standard maintenance diet twice daily.
# Test compounds where administrated either as a cassette or as a single compound. Test compounds were administrated by a single intravenous injection or short infusion (5-10 min) through the implanted catheter or a single subcutaneously injection. The subcutaneously injection was given in the mid neck between ear and scapula with a stopper on the needle, allowing 0.5 cm of the needle to be inserted.Plasma concentration-time profiles employing 12-16 sampling points were obtained from each animal. As an example, blood samples were collected on the following times: 0 (predose), 0.17, 0.33, 0.5, 1, 2, 5, 6, 24, 48, 72, 92, 168, 240 and 336 hrs post administration. Approximately 2 mL blood was drawn from the central catheter from each animal at each sampling point. Blood samples were taken in K2 or K3 EDTA tubes. Blood was kept on ice for maximum 30 min before centrifugation (10 min, 4°C, 2000 x g). Approximately 200 µL plasma samples was transferred to a Micronic tube and stored at -20° or lower.
# Pharmacokinetics parameters were calculated by non-compartmental analysis (NCA) of the individual plasma concentrations-time profile from the animals. The log-linear trapezoidal method was used for estimation of AUC and AUMC. The terminal T½ was determined as In(2)/λz where λz is the first order rate constant as determined by the terminal log-linear part of the curve.
# Plasma concentrations were measured by LC-MSMS using electrospray ionization and multiple reaction monitoring. Calibration standards and quality control (QC) samples were prepared in specie match matrix. 15 µL calibration standards, QC and study samples were extracted by protein precipitation using 60 µL methanol followed by addition of 45 µL milliQ water. Samples were shaken (800 rpm) at room temperature for 5 min before centrifugation (2570×g, 40 min, 4°C) and the supernatant was transferred to a LoBind PCR plate. Samples were analysed on a Thermo Triscend UHPLC system coupled to a Sciex API 6500+ mass spectrometer. Samples were subject to online SPE clean-up on a HLB column (1×50 mm, Waters) before loaded onto a Aeris Peptide XB C18 column (3.6 µm, 100 Å, 2×50 mm, Phenomenex) analytical column. The mobile phases consisted of acetonitrile and milliQ H2O both containing 0.1% V/V formic acid. The flow rate was 0.60 mL/min and the column was kept at room temperature.
# hCRHR1 = molecular target: T1, hCRHR1 (Homo sapiens, UniProt P34998); test: cAMP potency, transiently transfected CHO-K1 cells, hCRHR1; format: cell-based; design: DYK (FLAG); host or cells: CHO-K1, transiently transfected; settings: transiently transfected CHO-K1, average n=3; read-out: Transient cell system EC50 (nM) hCR HR1
# T1 sequence (P34998 24-415): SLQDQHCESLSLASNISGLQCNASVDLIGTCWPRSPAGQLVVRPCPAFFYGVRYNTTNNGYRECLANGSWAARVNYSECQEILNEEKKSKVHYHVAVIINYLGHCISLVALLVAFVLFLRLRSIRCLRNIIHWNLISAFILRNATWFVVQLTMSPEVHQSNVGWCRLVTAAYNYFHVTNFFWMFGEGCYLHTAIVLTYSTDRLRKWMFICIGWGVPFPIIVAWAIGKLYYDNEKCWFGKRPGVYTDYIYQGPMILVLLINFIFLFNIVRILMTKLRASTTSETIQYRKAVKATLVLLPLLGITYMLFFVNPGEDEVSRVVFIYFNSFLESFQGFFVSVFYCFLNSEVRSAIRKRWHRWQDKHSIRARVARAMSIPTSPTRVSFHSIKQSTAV
# [3] = T0, time zero after sample preparation
# [4] = T5, five days incubation at 40°C with continuous shaking
SMILES,"HMWP formation (SEC analysis) T14-T0 (%) ([1]; pH 7.0, 40°C)","HMWP formation (SEC analysis) T28-T0 (%) ([1]; pH 7.0, 40°C)","HMWP formation (SEC analysis) T14-T0 (%) ([1]; pH 7.5, 40°C)","HMWP formation (SEC analysis) T28-T0 (%) ([1]; pH 7.5, 40°C)","HMWP formation (SEC analysis) T14-T0 (%) ([1]; pH 8.0, 40°C)","HMWP formation (SEC analysis) T28-T0 (%) ([1]; pH 8.0, 40°C)","particle size / hydrodynamic radii (DLS) ([2]; 2000 µM, pH 7.5, five days incubation at 40°C with continuous shaking)","PD (%) [2, 3] [%]","Rh (nm) [2, 3] [nm]","PD (%) [2, 4]","Rh (nm) [2, 4] [nm]","half-life (PK in minipigs; iv, Pig, 6.0 nmol/kg i.v.) [h]",EC50 (hCRHR1) [nM],bioavailability (PK in minipigs) [%],Cmax (PK in minipigs; Pig) [nM],Tmax (PK in minipigs; Pig) [h],"clearance (PK in minipigs; iv, Pig, 4.2 nmol/kg i.v.) [mL/day/kg]","half-life (PK in minipigs; iv, Pig, 4.2 nmol/kg i.v.) [h]"
CC[C@H](C)[C@H](NC)C(=O)N[C@H](C(=O)N[C@@H](CC(C)C)C(=O)N[C@@H](CO)C(=O)N[C@@H](CC(C)C)C(=O)N[C@@H](CC(=O)O)C(=O)N[C@H](C(=O)N1CCC[C@H]1C(=O)N[C@H](C(=O)NCC(=O)N[C@@H](CC(C)C)C(=O)N[C@@H](CC(C)C)C(=O)N[C@@H](CCC(N)=O)C(=O)N[C@H](C(=O)N[C@@H](CC(C)C)C(=O)N[C@@H](CC(C)C)C(=O)N[C@@H](CCC(=O)O)C(=O)N[C@@H](CCC(N)=O)C(=O)N[C@@H](C)C(=O)N[C@@H](CCCNC(=N)N)C(=O)N[C@@H](C)C(=O)N[C@@H](CCCNC(=N)N)C(=O)N[C@@H](C)C(=O)N[C@@H](C)C(=O)N[C@@H](CCCNC(=N)N)C(=O)N[C@@H](CCC(=O)O)C(=O)N[C@@H](CCC(N)=O)C(=O)N[C@@H](C)C(=O)N[C@H](C(=O)N[C@@H](CCCCNC(=O)COCCOCCNC(=O)COCCOCCNC(=O)CC[C@H](NC(=O)CC[C@H](NC(=O)CCCCCCCCCCCCCCCCCCC(=O)O)C(=O)O)C(=O)O)C(=O)N[C@@H](CC(N)=O)C(=O)N[C@@H](C)C(=O)N[C@@H](CCC(=O)O)C(=O)N[C@H](C(=O)N[C@@H](CC(C)C)C(=O)N[C@@H](C)C(=O)N[C@@H](CCC(=O)O)C(=O)N[C@H](C(N)=O)C(C)C)[C@@H](C)CC)[C@@H](C)O)[C@@H](C)CC)[C@@H](C)CC)C(C)C)C(C)C [SEQ ID NO: 6] (H-[NMeI]VLSLDVPIGLLQILLEQARARAAREQATK([AEEA-AEEA-γGlu-γGlu-C20 diacid])NAEILAEV-NH2),-0.1,0.1,-0.4,-0.4,-0.2,0.0,formed larger particles and several species (multimodal),38.5,5.8,Multimodal,30.6,145,> 1000,–,–,–,–,–
CC[C@H](C)[C@H](N)C(=O)N[C@H](C(=O)N[C@@H](CC(C)C)C(=O)N[C@@H](CO)C(=O)N[C@@H](CC(C)C)C(=O)N[C@@H](CC(=O)O)C(=O)N[C@H](C(=O)N1CCC[C@H]1C(=O)N[C@H](C(=O)NCC(=O)N[C@@H](CC(C)C)C(=O)N[C@@H](CC(C)C)C(=O)N[C@@H](CCC(N)=O)C(=O)N[C@H](C(=O)N[C@@H](CC(C)C)C(=O)N[C@@H](CC(C)C)C(=O)N[C@@H](CCC(=O)O)C(=O)N[C@@H](CCC(N)=O)C(=O)N[C@@H](C)C(=O)N[C@@H](CCCNC(=N)N)C(=O)N[C@@H](C)C(=O)N[C@@H](CCCNC(=N)N)C(=O)N[C@@H](C)C(=O)N[C@@H](C)C(=O)N[C@@H](CCCNC(=N)N)C(=O)N[C@@H](CCC(=O)O)C(=O)N[C@@H](CCC(N)=O)C(=O)N[C@@H](C)C(=O)N[C@@H](CCCCNC(=O)COCCOCCNC(=O)COCCOCCNC(=O)CC[C@H](NC(=O)CC[C@H](NC(=O)CCCCCCCCCCCCCCCCCCC(=O)O)C(=O)O)C(=O)O)C(=O)N[C@H](C(=O)N[C@@H](CC(N)=O)C(=O)N[C@@H](C)C(=O)N[C@@H](CCC(=O)O)C(=O)N[C@H](C(=O)N[C@@H](CC(C)C)C(=O)N[C@@H](C)C(=O)N[C@@H](CCC(=O)O)C(=O)N[C@H](C(N)=O)C(C)C)[C@@H](C)CC)[C@@H](C)O)[C@@H](C)CC)[C@@H](C)CC)C(C)C)C(C)C [SEQ ID NO: 3] (H-IVLSLDVPIGLLQILLEQARARAAREQAK([AEEA-AEEA-γGlu-γGlu-C20 diacid])TNAEILAEV-NH2),–,–,–,–,–,–,–,–,–,–,–,156,> 1000,55,60,24,–,–
CCCC[C@H](NC(=O)[C@@H](NC(=O)[C@H](CCC(=O)O)NC(=O)C(C)(C)NC(=O)[C@H](CC(N)=O)NC(=O)[C@@H](NC(=O)[C@H](CCCCNC(=O)COCCOCCNC(=O)COCCOCCNC(=O)CC[C@H](NC(=O)CC[C@H](NC(=O)CCCCCCCCCCCCCCCCCCC(=O)O)C(=O)O)C(=O)O)NC(=O)[C@H](C)NC(=O)[C@H](CCC(N)=O)NC(=O)[C@H](CCC(=O)O)NC(=O)[C@H](CCCNC(=N)N)NC(=O)[C@H](C)NC(=O)[C@H](C)NC(=O)[C@H](CCCNC(=N)N)NC(=O)[C@H](C)NC(=O)[C@H](CCCNC(=N)N)NC(=O)[C@H](C)NC(=O)[C@H](CCC(N)=O)NC(=O)[C@H](CO)NC(=O)[C@H](CC(C)C)NC(=O)[C@H](CC(C)C)NC(=O)[C@@H](NC(=O)[C@H](CCC(N)=O)NC(=O)[C@H](CC(C)C)NC(=O)[C@H](CC(C)C)NC(=O)CNC(=O)[C@@H](NC(=O)[C@@H]1CCCN1C(=O)[C@@H](NC(=O)[C@H](CC(=O)O)NC(=O)[C@H](CC(C)C)NC(=O)[C@H](CO)NC(=O)[C@H](CC(C)C)NC(=O)[C@@H](NC(=O)[C@@H](NC)[C@@H](C)CC)C(C)C)C(C)C)[C@@H](C)CC)[C@@H](C)CC)[C@@H](C)O)[C@@H](C)CC)C(=O)N[C@@H](C)C(=O)N[C@@H](CCC(=O)O)C(=O)N[C@H](C(N)=O)C(C)C [SEQ ID NO: 215] (H-[NMeI]VLSLDVPIGLLQILLSQARARAAREQAK([AEEA-AEEA-γGlu-γGlu-C20 diacid])TN[Aib]EI[Nle]AEV-NH2),-0.3,-0.3,0.1,0.3,0.0,-0.1,–,10.8,5.6,15.1%,5.9,–,–,68,38,24,7.2,156

# — patent EP4810052A2, “HCRHR2 SELECTIVE POLYPEPTIDES” (Gubra A/S, priority 2023, dated 2026)
